Results on 20 molecules are retold here after patent US12655174B2, “Adenosine A3 receptor agonists, preparation methods and uses thereof” (ZHEJIANG VIMGREEN PHARMACEUTICALS, LTD., priority 2020, dated 2026).

Each structure is given as a SMILES string. pEC50: −log10 of the molar value.

The first data set addresses T1, ADORA3 receptor (CHO cells stably expressing ADORA3 receptor) (Homo sapiens, UniProt P0DMS8).
T1 construct: expressed in transfected cells
T1 sequence (P0DMS8 1-318): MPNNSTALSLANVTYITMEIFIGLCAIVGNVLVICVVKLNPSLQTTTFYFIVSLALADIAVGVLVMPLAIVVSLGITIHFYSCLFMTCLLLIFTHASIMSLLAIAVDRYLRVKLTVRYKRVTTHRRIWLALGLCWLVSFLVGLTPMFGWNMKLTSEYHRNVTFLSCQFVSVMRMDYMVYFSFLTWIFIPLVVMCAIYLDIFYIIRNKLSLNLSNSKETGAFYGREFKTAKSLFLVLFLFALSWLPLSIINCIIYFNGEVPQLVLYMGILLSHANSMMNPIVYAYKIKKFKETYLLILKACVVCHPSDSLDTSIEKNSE
Nature of the data set: Effect of compound on intracellular cAMP level by adenosine A3 receptor agonism. Type of data set: cell-based. Particulars: forskolin-stimulated. As to the method:
Example 26: Test the Effect of Compound on Intracellular cAMP Level by Adenosine A3 Receptor Agonism
• 1) 1×HBSS with Ca2+ and Mg2+ (14 mL), 1 M HEPES (75 μL), a 7.5% (w/v) BSA stabilizer (pH 7.4, 200 μL), and 20 mM rolipram (7.5 μL) were respectively prepared as cAMP assay buffer. • 2) Preparation of compound source plate • a. […] A 10 mM stock solution was subjected to a 3-fold serial dilution by 100% (v/v) DMSO to prepare 10 doses of the test substance. • c. 1 mM of Forskolin was prepared by 100% (v/v) DMSO. • 3) Preparation of test plate • a. Prior to the assay, CHO cells stably expressing ADORA3 receptor were harvested and the cells were counted by using a Countess cell counter. […] The cells were seeded at a density of 2,000 cells/well in a 384-well plate. • 4) 10 nL/well of the serially diluted compound and 10 nL/well of 1 mM of forskolin were transferred to each well with ADORA3 receptor expressing cells by using Echo550. • 5) A cell plate was centrifuged at 1,000 rpm for 1 minute and then stirred at 600 rpm for 2 minutes. The plate was incubated at 37° C. • 6) An Eu-cAMP tracer working solution and an Ulight-anti-cAMP working solution were prepared according to the following table.
• 7) 5 μl/well of the Eu-cAMP tracer working solution and 5 μl/well of the Ulight-anti-cAMP working solution were added to each well of the plate. […] 2. Data Analysis • 1) An activation percentage was calculated by using the following formula:
[formula] • % Activation: activation percentage • Ratiocpd: ratio of emissivity of test compound • RatioLow control: ratio of low emissivity • RatioHigh control: ratio of high emissivity • 2) EC50 was calculated by an XLfit using the Hill equation to fit the activity percentage and a log of a compound concentration. 3. Test Result
For orientation: Changes in cAMP serve as a functional read-out for many G protein-coupled receptors.
One may read the pEC50 as the negative decadic logarithm of the EC50, by convention in mol/L. In turn, `CNC(=O)[C@H]1OC(n2cnc3c(NCc4ccccc4)nc(-c4ccccn4)nc32)[C@H](O)[C@@H]1O` (stereo in doubt) [compound 325, (2S,3S,4R,5S)-5-(6-(benzylamino)-2-(pyridin-2-yl)-9H-purin-9-yl)-3,4-dihydroxyl-N-methyltetrahydrofuran-2-carboxamide] had a pEC50 of 8.02.

Test system in another data set: not listed separately
In words: Pharmacokinetic test of compound in SD rat. To be noted: SD rats, intragastric administration (IG), cassette dosing. It is filed as in vivo. As to the method:
Example 28: Pharmacokinetic Test of Compound in SD Rat
The animal species used in this experiment were SD rats. There were 3 animals per group. The rats were dosed in cassette format, i.e., multiple (1-6) different compounds were dosed simultaneously to the same group of the SD rats. The vehicle used for the drug was 5% DMSO+5% Solutl+90% ([…] methylcellulose M450), and the administration route was intragastric administration (IG).
`[2H]C([2H])([2H])NC(=O)[C@H]1O[C@@H](n2cnc3c(NCc4cc(F)cc(Cl)c4)nc(-c4cncc(Cl)c4)nc32)[C@H](O)[C@@H]1O` [compound 241, (2S,3S,4R,5R)-5-(6-(3-chloro-5-fluorobenzylamino)-2-(5-chloropyridin-3-yl)-9H-purin-9-yl)-3,4-dihydroxyl-N-(methyl-d3)-tetrahydrofuran-2-carboxamide]: the “AUC_D” value is 440.67 kg·ng·h/mL/mg.

On to `CCNC(=O)[C@H]1O[C@@H](n2cnc3c(NCc4ccccc4)nc(-c4cncc(Cl)c4)nc32)[C@H](O)[C@@H]1O` [compound 242, (2S,3S,4R,5R)-5-(6-(benzylamino)-2-(5-chloropyridin-3-yl)-9H-purin-9-yl)-N-ethyl-3,4-dihydroxyltetrahydrofuran-2-carboxamide], for which the “AUC_D” value stood at 811.33 kg·ng·h/mL/mg.

`[2H]C([2H])([2H])NC(=O)[C@H]1O[C@@H](n2cnc3c(NCc4cccc(Br)c4)nc(-c4cncc(Cl)c4)nc32)[C@H](O)[C@@H]1O` [compound 248, (2S,3S,4R,5R)-5-(6-((3-bromobenzyl)amino)-2-(5-chloropyridin-3-yl)-9H-purin-9-yl)-3,4-dihydroxyl-N-(methyl-d3)tetrahydrofuran-2-carboxamide]: the “AUC_D” value turned out to be 3298.00 kg·ng·h/mL/mg.

Take `[2H]C([2H])([2H])NC(=O)[C@H]1O[C@@H](n2cnc3c(NCc4cccc(I)c4)nc(-c4cncc(Cl)c4)nc32)[C@H](O)[C@@H]1O` [compound 250, (2S,3S,4R,5R)-5-(2-(5-chloropyridin-3-yl)-6-((3-iodobenzyl)amino)-9H-purin-9-yl)-3,4-dihydroxyl-N-(methyl-d3)tetrahydrofuran-2-carboxamide]: the “AUC_D” value came to 2137.00 kg·ng·h/mL/mg.

Consider `[2H]C([2H])([2H])NC(=O)[C@H]1O[C@@H](n2cnc3c(N[C@H](C)c4ccccc4)nc(-c4cncc(Cl)c4)nc32)[C@H](O)[C@@H]1O` [compound 251], for which the “AUC_D” value was found to be 610.00 kg·ng·h/mL/mg.

Take `[2H]C([2H])([2H])NC(=O)[C@H]1O[C@@H](n2cnc3c(N[C@@H](C)c4ccccc4)nc(-c4cncc(Cl)c4)nc32)[C@H](O)[C@@H]1O` [compound 252]: the “AUC_D” value was found to be 532.00 kg·ng·h/mL/mg.

For `[2H]C([2H])([2H])NC(=O)[C@H]1O[C@@H](n2cnc3c(NCc4cscn4)nc(-c4cncc(Cl)c4)nc32)[C@H](O)[C@@H]1O` [compound 253, (2S,3S,4R,5R)-5-(2-(5-chloropyridin-3-yl)-6-((thiazol-4-ylmethyl)amino)-9H-purin-9-yl)-3,4-dihydroxyl-N-(methyl-d3)tetrahydrofuran-2-carboxamide], the “AUC_D” value came to 299.00 kg·ng·h/mL/mg.

As to `[2H]C([2H])([2H])NC(=O)[C@H]1O[C@@H](n2cnc3c(NCc4cocn4)nc(-c4cncc(Cl)c4)nc32)[C@H](O)[C@@H]1O` [compound 257, (2S,3S,4R,5R)-5-(2-(5-chloropyridin-3-yl)-6-((oxazol-4-ylmethyl)amino)-9H-purin-9-yl)-3,4-dihydroxyl-N-(methyl-d3)tetrahydrofuran-2-carboxamide], the “AUC_D” value came out at 96.00 kg·ng·h/mL/mg.

Turning to `[2H]C([2H])([2H])NC(=O)[C@H]1O[C@@H](n2cnc3c(NCc4cccc(OC)c4)nc(-c4cncc(Cl)c4)nc32)[C@H](O)[C@@H]1O` [compound 265, (2S,3S,4R,5R)-5-(2-(5-chloropyridin-3-yl)-6-(3-methoxybenzylamino)-9H-purin-9-yl)-3,4-dihydroxyl-N-(methyl-d3)-tetrahydrofuran-2-carboxamide], the “AUC_D” value turned out to be 764.50 kg·ng·h/mL/mg.

Turning to `[2H]C([2H])([2H])NC(=O)[C@H]1O[C@@H](n2cnc3c(NCc4ccc(OC)cc4)nc(-c4cncc(Cl)c4)nc32)[C@H](O)[C@@H]1O` [compound 267, (2S,3S,4R,5R)-5-(2-(5-chloropyridin-3-yl)-6-(4-methoxybenzylamino)-9H-purin-9-yl)-3,4-dihydroxyl-N-(methyl-d3)-tetrahydrofuran-2-carboxamide], the “AUC_D” value was 82.98 kg·ng·h/mL/mg.

With `[2H]C([2H])([2H])NC(=O)[C@H]1O[C@@H](n2cnc3c(NCc4cccc(C)n4)nc(-c4cncc(Cl)c4)nc32)[C@H](O)[C@@H]1O` [compound 271, (2S,3S,4R,5R)-5-(2-(5-chloropyridin-3-yl)-6-((6-methylpyridin-2-yl)methylamino)-9H-purin-9-yl)-3,4-dihydroxyl-N-(methyl-d3)-tetrahydrofuran-2-carboxamide], the “AUC_D” value amounted to 1131.18 kg·ng·h/mL/mg.

With `[2H]C([2H])([2H])NC(=O)[C@H]1O[C@@H](n2cnc3c(NCCC)nc(-c4cncc(Cl)c4)nc32)[C@H](O)[C@@H]1O` [compound 285, (2S,3S,4R,5R)-5-(2-(5-chloropyridin-3-yl)-6-(propylamino)-9H-purin-9-yl)-3,4-dihydroxyl-N-(methyl-d3)-tetrahydrofuran-2-carboxamide], the “AUC_D” value amounted to 175.00 kg·ng·h/mL/mg.

As to `[2H]C([2H])([2H])NC(=O)[C@H]1O[C@@H](n2cnc3c(NCCOC)nc(-c4cncc(Cl)c4)nc32)[C@H](O)[C@@H]1O` [compound 288, (2S,3S,4R,5R)-5-(2-(5-chloropyridin-3-yl)-6-((2-methoxyethyl)amino)-9H-purin-9-yl)-3,4-dihydroxyl-N-(methyl-d3)-tetrahydrofuran-2-carboxamide], the “AUC_D” value worked out at 118.00 kg·ng·h/mL/mg.

For the molecule `CNC(=O)[C@H]1O[C@@H](n2cnc3c(NCc4cccc(C)n4)nc(-c4cncc(C)c4)nc32)[C@H](O)[C@@H]1O` [compound 295, (2S,3S,4R,5R)-3,4-dihydroxyl-N-methyl-5-(6-(((6-methylpyridin-2-yl)methyl)amino)-2-(5-methylpyridin-3-yl)-9H-purin-9-yl)tetrahydrofuran-2-carboxamide], the “AUC_D” value worked out at 610.66 kg·ng·h/mL/mg.

For `[2H]C([2H])([2H])NC(=O)[C@H]1O[C@@H](n2cnc3c(NC(C)C)nc(-c4cncc(Cl)c4)nc32)[C@H](O)[C@@H]1O` [compound 319, (2S,3S,4R,5R)-5-(2-(5-chloropyridin-3-yl)-6-(isopropylamino)-9H-purin-9-yl)-3,4-dihydroxyl-N-(methyl-d3)tetrahydrofuran-2-carboxamide], the “AUC_D” value was 74.00 kg·ng·h/mL/mg.

As for `[2H]C([2H])([2H])NC(=O)[C@H]1O[C@@H](n2cnc3c(NCc4cccc(F)c4)nc(-c4cncc(Cl)c4)nc32)[C@H](O)[C@@H]1O` [compound 321], the “AUC_D” value is 1167.46 kg·ng·h/mL/mg.

Take `CNC(=O)[C@H]1O[C@@H](n2cnc3c(NCc4ccc(F)c(F)c4)nc(-c4cncc(Cl)c4)nc32)[C@H](O)[C@@H]1O` [compound 322, (2S,3S,4R,5R)-5-(2-(5-chloropyridin-3-yl)-6-((3,4-difluorobenzyl)amino)-9H-purin-9-yl)-3,4-dihydroxyl-N-methyltetrahydrofuran-2-carboxamide]: the “AUC_D” value was determined as 97.03 kg·ng·h/mL/mg.

As for `[2H]C([2H])([2H])NC(=O)[C@H]1O[C@@H](n2cnc3c(OCc4ccccc4)nc(-c4cncc(Cl)c4)nc32)[C@H](O)[C@@H]1O` [compound 323, (2S,3S,4R,5R)-5-(6-(benzyloxy)-2-(5-chloropyridin-3-yl)-9H-purin-9-yl)-3,4-dihydroxyl-N-(methyl-d3)-tetrahydrofuran-2-formamide], the “AUC_D” value was found to be 1309.00 kg·ng·h/mL/mg.

Consider `CCNC(=O)[C@H]1O[C@@H](n2cnc3c(N)nc(-c4cncc(Cl)c4)nc32)[C@H](O)[C@@H]1O` [compound 324, (2S,3S,4R,5R)-5-(6-amino-2-(5-chloropyridin-3-yl)-9H-purin-9-yl)-N-ethyl-3,4-dihydroxyltetrahydrofuran-2-formamide], for which the “AUC_D” value stood at 78.00 kg·ng·h/mL/mg.
